Experiments:
[1] = pKa determination by titration with aqueous potassium hydroxide
Text: The pKa value was taken as the pH at ½-equivalent volume of potassium hydroxide and corrected against a standard curve prepared from measurements on maleic acid, succinic acid, methacrylic acid, propanoic acid and pentanoic acid.

[2] = Solubility of the product in solvents; type: physicochemical
[3] = Effect of hydrogen peroxide oxidation of thioether sulphur on pKa; type: physicochemical; conditions: 0.82-2.17 eq. H2O2 (30%), after 2 days at room temperature, average pKa of oxidation products
Procedure: Five aqueous (35 ml) solutions of GALA (approx 2 mmol) was prepared) and varying amounts of hydrogen peroxide (0.82-2.17 eq., 30%) added. The average pKa value of the oxidation products was assessed after 2 days at room temperature, and the relation between pKa and mol ratio H2O2/S can be seen in FIG. 1.

[4] = in water, pH at 1/2-equivalent volume of 0.1 M KOH, corrected against a standard curve

SMILES | pKa ([1]; water) | solubility in hexane [2] | solubility in methanol [2] | pKa [1, 4] | other results
CCC(CO)(CO)COCCCSC(C)C(=O)O (stereo not drawn) [TELA, Trimethyolpropane Monoallyl Ether-Thiolactic Acid Adduct] |  | not soluble | soluble |  | solubility in toluene ([2]; toluene): soluble
O=C(O)CSCCCOCC(O)CO (stereo not drawn) [GAMA, Glycerol 1-Monoallyl Ether-Mercaptoacetic Acid] |  |  |  | 3.60 | 
CC(SCCCOCC(O)CO)C(=O)O (stereo not drawn) [GALA, Glycerol Monoallyl Ether-Thiolactic Acid Adduct] |  | not soluble | soluble | 3.67 | solubility in ethanol/toluene (1/4) ([2]; ethanol/toluene (1/4)): soluble; solubility in water ([2]; water): soluble; reduction of pKa value by addition of hydrogen peroxide [3]: approximately 1 unit

Further lines, with some results ahead:

pKa ([1]; water) | SMILES | solubility in hexane [2] | solubility in methanol [2] | pKa [1, 4] | other results
4.64 | CC(CO)(CO)C(=O)O [DMPA, 2,2-bis-(hydroxymethyl)propanoic acid, reference compound] |  |  |  | 
4.55 | CCC(CO)(CO)C(=O)O [DMBA, 2,2-bis-(hydroxymethyl)butanoic acid, reference compound] |  |  |  | 

Reference: patent publication US8431748B2, “Low protonation constant hydroxy acids” (BWE I Malmo AB, priority 2006, dated 2013)
